Test results as given in the NIST ThermoML archive (doi:10.1016/j.jct.2005.10.006).
± gives the expanded uncertainty stated by the source.

Test: xn = mol fraction of the nth substance listed
Conditions: Fluid (supercritical or subcritical phases), Spherical resonator

N#N [nitrogen] + C
Conditions	speed of sound [m/s]
250 K, 30044 kPa, x1 = 0.1	707.81 ± 1.1
250 K, 30196 kPa, x1 = 0.2	665.27 ± 1.1
275 K, 105.1 kPa, x1 = 0.2	405.31 ± 0.67
275 K, 249.6 kPa, x1 = 0.2	404.93 ± 0.67
275 K, 498.5 kPa, x1 = 0.1	416.53 ± 0.68
275 K, 498.5 kPa, x1 = 0.2	404.25 ± 0.67
275 K, 998 kPa, x1 = 0.2	402.93 ± 0.66
275 K, 998.1 kPa, x1 = 0.1	414.81 ± 0.68
275 K, 1999 kPa, x1 = 0.1	411.66 ± 0.68
275 K, 2001 kPa, x1 = 0.2	400.6 ± 0.66
275 K, 3010 kPa, x1 = 0.2	398.72 ± 0.66
275 K, 3012 kPa, x1 = 0.1	408.95 ± 0.67
275 K, 4014 kPa, x1 = 0.2	397.39 ± 0.65
275 K, 4024 kPa, x1 = 0.1	406.81 ± 0.67
275 K, 5030 kPa, x1 = 0.2	396.69 ± 0.65
275 K, 6045 kPa, x1 = 0.2	396.72 ± 0.65
275 K, 6053 kPa, x1 = 0.1	404.7 ± 0.67
275 K, 7052 kPa, x1 = 0.2	397.57 ± 0.65
275 K, 8005 kPa, x1 = 0.1	406.18 ± 0.67
275 K, 8072 kPa, x1 = 0.2	399.34 ± 0.66
275 K, 9089 kPa, x1 = 0.2	402.1 ± 0.66
275 K, 9957 kPa, x1 = 0.1	411.99 ± 0.68
275 K, 10115 kPa, x1 = 0.2	405.96 ± 0.67
275 K, 11147 kPa, x1 = 0.2	410.97 ± 0.68
275 K, 12035 kPa, x1 = 0.1	423.61 ± 0.7
275 K, 12036 kPa, x1 = 0.1	423.62 ± 0.7
275 K, 12160 kPa, x1 = 0.2	416.99 ± 0.68
275 K, 13171 kPa, x1 = 0.2	424.08 ± 0.7
275 K, 14013 kPa, x1 = 0.2	430.77 ± 0.71
275 K, 14111 kPa, x1 = 0.1	440.93 ± 0.72
275 K, 15003 kPa, x1 = 0.2	439.49 ± 0.72
275 K, 15988 kPa, x1 = 0.1	460.87 ± 0.75
275 K, 15990 kPa, x1 = 0.2	449 ± 0.74
275 K, 17009 kPa, x1 = 0.2	459.59 ± 0.75
275 K, 17997 kPa, x1 = 0.2	470.47 ± 0.77
275 K, 18033 kPa, x1 = 0.1	486.14 ± 0.79
275 K, 19084 kPa, x1 = 0.2	483.04 ± 0.79
275 K, 19680 kPa, x1 = 0.2	490.13 ± 0.8
275 K, 20228 kPa, x1 = 0.1	515.84 ± 0.84
275 K, 24821 kPa, x1 = 0.1	581.11 ± 0.95
275 K, 29257 kPa, x1 = 0.1	642.82 ± 1
275 K, 29972 kPa, x1 = 0.2	619.3 ± 1
300 K, 199.5 kPa, x1 = 0.1	434.92 ± 0.71
300 K, 248.5 kPa, x1 = 0.2	421.88 ± 0.69
300 K, 480.1 kPa, x1 = 0.5422	386.4 ± 0.64
300 K, 498 kPa, x1 = 0.1	434.24 ± 0.71
300 K, 498.6 kPa, x1 = 0.2	421.47 ± 0.69
300 K, 707.5 kPa, x1 = 0.5422	386.45 ± 0.64
300 K, 996.8 kPa, x1 = 0.1	433.15 ± 0.71
300 K, 1191 kPa, x1 = 0.5422	386.59 ± 0.64
300 K, 1998 kPa, x1 = 0.1	431.25 ± 0.71
300 K, 1999 kPa, x1 = 0.2	419.47 ± 0.69
300 K, 2344 kPa, x1 = 0.5422	387.23 ± 0.64
300 K, 3003 kPa, x1 = 0.1	429.75 ± 0.7
300 K, 4015 kPa, x1 = 0.2	418.25 ± 0.69
300 K, 4016 kPa, x1 = 0.1	428.73 ± 0.7
300 K, 4632 kPa, x1 = 0.5422	389.87 ± 0.64
300 K, 5019 kPa, x1 = 0.1	428.26 ± 0.7
300 K, 6030 kPa, x1 = 0.1	428.38 ± 0.7
300 K, 6037 kPa, x1 = 0.2	419.02 ± 0.69
300 K, 6838 kPa, x1 = 0.5422	394.27 ± 0.65
300 K, 7046 kPa, x1 = 0.1	429.17 ± 0.7
300 K, 8068 kPa, x1 = 0.2	422.18 ± 0.69
300 K, 8086 kPa, x1 = 0.1	430.75 ± 0.71
300 K, 8994 kPa, x1 = 0.5422	400.43 ± 0.66
300 K, 10104 kPa, x1 = 0.2	428.03 ± 0.7
300 K, 10134 kPa, x1 = 0.1	436.25 ± 0.71
300 K, 11262 kPa, x1 = 0.5422	408.61 ± 0.67
300 K, 11983 kPa, x1 = 0.2	435.96 ± 0.71
300 K, 12193 kPa, x1 = 0.1	445.26 ± 0.73
300 K, 14023 kPa, x1 = 0.2	447.31 ± 0.73
300 K, 14237 kPa, x1 = 0.1	457.66 ± 0.75
300 K, 16022 kPa, x1 = 0.2	461.03 ± 0.75
300 K, 16322 kPa, x1 = 0.1	473.66 ± 0.77
300 K, 17969 kPa, x1 = 0.2	476.54 ± 0.78
300 K, 18326 kPa, x1 = 0.1	491.78 ± 0.8
300 K, 19736 kPa, x1 = 0.2	492.16 ± 0.8
300 K, 19924 kPa, x1 = 0.1	507.75 ± 0.83
300 K, 24934 kPa, x1 = 0.1	563.32 ± 0.92
300 K, 30250 kPa, x1 = 0.1	625.49 ± 1
350 K, 202.3 kPa, x1 = 0.1	466.26 ± 0.76
350 K, 248.7 kPa, x1 = 0.2	452.58 ± 0.74
350 K, 498.6 kPa, x1 = 0.2	452.54 ± 0.74
350 K, 502 kPa, x1 = 0.1	466.1 ± 0.76
350 K, 552.3 kPa, x1 = 0.5422	415.67 ± 0.68
350 K, 814.8 kPa, x1 = 0.5422	415.97 ± 0.68
350 K, 1001 kPa, x1 = 0.1	465.83 ± 0.76
350 K, 1374 kPa, x1 = 0.5422	416.67 ± 0.68
350 K, 1999 kPa, x1 = 0.2	452.66 ± 0.74
350 K, 2001 kPa, x1 = 0.1	465.52 ± 0.76
350 K, 2717 kPa, x1 = 0.5422	418.62 ± 0.69
350 K, 3007 kPa, x1 = 0.1	465.52 ± 0.76
350 K, 4009 kPa, x1 = 0.2	453.86 ± 0.74
350 K, 4012 kPa, x1 = 0.1	465.86 ± 0.76
350 K, 5419 kPa, x1 = 0.5422	423.85 ± 0.7
350 K, 6023 kPa, x1 = 0.1	467.64 ± 0.76
350 K, 6042 kPa, x1 = 0.2	456.41 ± 0.75
350 K, 8048 kPa, x1 = 0.1	471.02 ± 0.77
350 K, 8070 kPa, x1 = 0.5422	430.68 ± 0.71
350 K, 8140 kPa, x1 = 0.2	460.55 ± 0.75
350 K, 9931 kPa, x1 = 0.2	465.36 ± 0.76
350 K, 10069 kPa, x1 = 0.1	476.07 ± 0.78
350 K, 10144 kPa, x1 = 0.2	466.02 ± 0.76
350 K, 12122 kPa, x1 = 0.1	482.98 ± 0.79
350 K, 12140 kPa, x1 = 0.2	472.93 ± 0.77
350 K, 13507 kPa, x1 = 0.5422	449.48 ± 0.74
350 K, 14143 kPa, x1 = 0.1	491.53 ± 0.8
350 K, 14157 kPa, x1 = 0.2	481.39 ± 0.79
350 K, 16162 kPa, x1 = 0.2	491.18 ± 0.8
350 K, 16179 kPa, x1 = 0.1	501.83 ± 0.82
350 K, 17867 kPa, x1 = 0.2	500.53 ± 0.81
350 K, 18210 kPa, x1 = 0.1	513.66 ± 0.83
350 K, 19448 kPa, x1 = 0.2	509.95 ± 0.83
350 K, 19809 kPa, x1 = 0.1	523.96 ± 0.85
400 K, 199.4 kPa, x1 = 0.1	494.39 ± 0.8
400 K, 231.4 kPa, x1 = 0.2	480.07 ± 0.78
400 K, 497.1 kPa, x1 = 0.1	494.48 ± 0.8
400 K, 501.8 kPa, x1 = 0.2	480.26 ± 0.78
400 K, 622 kPa, x1 = 0.5422	442.06 ± 0.72
400 K, 918.4 kPa, x1 = 0.5422	442.56 ± 0.72
400 K, 995.6 kPa, x1 = 0.1	494.7 ± 0.81
400 K, 1551 kPa, x1 = 0.5422	443.69 ± 0.73
400 K, 1990 kPa, x1 = 0.1	495.31 ± 0.81
400 K, 2005 kPa, x1 = 0.2	481.61 ± 0.78
400 K, 2989 kPa, x1 = 0.1	496.16 ± 0.81
400 K, 3075 kPa, x1 = 0.5422	446.66 ± 0.73
400 K, 3994 kPa, x1 = 0.1	497.25 ± 0.81
400 K, 4015 kPa, x1 = 0.2	484.18 ± 0.79
400 K, 6011 kPa, x1 = 0.1	500.22 ± 0.81
400 K, 6027 kPa, x1 = 0.2	487.68 ± 0.79
400 K, 6170 kPa, x1 = 0.5422	453.88 ± 0.74
400 K, 8012 kPa, x1 = 0.1	504.2 ± 0.82
400 K, 8046 kPa, x1 = 0.2	492.14 ± 0.8
400 K, 9240 kPa, x1 = 0.5422	462.55 ± 0.76
400 K, 10023 kPa, x1 = 0.1	509.28 ± 0.83
400 K, 10077 kPa, x1 = 0.2	497.61 ± 0.81
400 K, 12004 kPa, x1 = 0.2	503.66 ± 0.82
400 K, 12054 kPa, x1 = 0.1	515.5 ± 0.84
400 K, 14084 kPa, x1 = 0.1	522.78 ± 0.85
400 K, 14562 kPa, x1 = 0.2	513.02 ± 0.83
400 K, 15633 kPa, x1 = 0.5422	484.69 ± 0.79
400 K, 16027 kPa, x1 = 0.2	519 ± 0.84
400 K, 16081 kPa, x1 = 0.1	530.96 ± 0.86
400 K, 16082 kPa, x1 = 0.1	530.96 ± 0.86
400 K, 18039 kPa, x1 = 0.2	527.93 ± 0.86
400 K, 18052 kPa, x1 = 0.1	539.93 ± 0.88
400 K, 19788 kPa, x1 = 0.1	548.54 ± 0.89
400 K, 20114 kPa, x1 = 0.2	537.94 ± 0.87
